Data published in US9447075B2, “Pyridazine derivatives as EAAT2 activators” (The Brigham and Women's Hospital, Inc., priority 2011, dated 2016).

Legend:
[1] = test system: EAAT2; experiment: Immunofluorescent staining of induced EAAT2 protein in PA-EAAT2 cells; type: cell-based, human; conditions: PA-EAAT2 cells (FIG. 6E)
Description: Characterization and efficacy studies of a compound, Compound 212320 (FIG. 6A) is shown. […] In the absence of serum, PA-EAAT2 cells express low amounts of EAAT2 protein, although the recombinant EAAT2 mRNA are expressed (translational silencing); however, EAAT2 protein levels are increased when an activator is added to the culture (translational activation). This cell line was used for high-throughput screening to identify EAAT2 translational activators. To prioritize candidate compounds, we initially evaluated activation of EAAT2 protein in PA-EAAT2 cells. Promising compounds were further evaluated in primary dissociated neuron and astrocyte mixed cultures and then in mice. FIG. 6 presents the characterization of Compound 212320 in PA-EAAT2 cells. Compound 212320 increased EAAT2 protein levels in a dose—(FIG. 6B) and time—(FIG. 6C) dependent manner. Importantly, the induction occurred in a short amount of time (within 1-2 hr) and was sustained even up to 72 hr (data not show). Additionally, induction occurred at low nanomolar concentrations. […] (FIG. 6D).

[2] = test system: SOD1(G93A) mice; experiment: ALS model (SOD1(G93A) mouse model); type: in vivo
Excerpt: Guidelines established by the ENMC Group were followed (see Ludolph, A. C., et al. Guidelines for the preclinical in vivo evaluation of pharmacological active drugs for ALS/MND: report on the 142nd ENMC international workshop. Amyotroph Lateral Scler 8, 217-223 (2007))^1, which included the use of gender matched mice (i.e. equal number of males and females in each experimental group), use of littermate matched mice (i.e. the littermate of a therapeutic mouse is used in the control group) and use of mice with the same copy number of the SOD1 transgene. SOD1(G93A) mice received Compound 212320 (shown below, shown also as compound 7-4 in FIG. 1) at 40 mg/kg in 500 μl of 1% DMSO/1% polyethylene glycol 400/0.2% Tween 80/10% hydroxypropyl-β-cyclodextrin/saline starting at 84 days of age (6 times/week, at the same time each day) until death or harvested at 120-days of age for analysis. Western blotting, cresyl violet staining and immunofluorescence staining were performed as previously described in Chang, Y., et al. Messenger RNA oxidation occurs early in disease pathogenesis and promotes motor neuron degeneration in ALS. PLoS One 3, e2849 (2008).
Motor function was determined by measuring peak force using a digital grip dynamometer outfitted with a hind limb pull bar assembly (Columbus Instruments). Measurements started from 70 days of age (three times a week, on the same day of each week and at the same time of each scheduled day) until the mouse loses all strength. Six repetitions were conducted and the average was determined for each point. The examiners were unaware of the treatment of the mice. Food and water were placed on the cage floor when mice began to show motor deficits. […] This time point was recorded as the time of death for survival in days.
Referring to FIG. 2, Compound 212320 delayed motor function decline and extended life span in SOD1(G93A) mice. […] Data were analyzed using the dynamic fitting nonlinear regression analysis. […] Data were analyzed using Kaplan-Meier survival analysis. […] Spinal cords from 120-day-old mice were analyzed.

[3] = test system: All other kinases (288 kinases tested); experiment: Protein kinase profiling: all other of 288 kinases; type: biochemical; conditions: 1 and 10 μM
Description: To assess Compound 212320's biological activity and selectivity, we performed an in vitro side effect profiling study. Seventy-one targets were tested at 10 μM in duplicate. These targets include neurotransmitter related receptors (30), steroids (2), ion channels (6), second messenger (1), prostaglandins (3), growth factors/hormones (4), brain/gut peptides (13), enzymes (5) and cytochrome p450 (7). […] Additionally, we performed a protein kinase profiling study. Compound 212320 was tested at 1 and 10 μM against 288 kinases. […] These studies indicate that Compound 212320 has high specificity and low side-effects/toxicity potential.

[4] = i.p., 40 mg/kg daily from 84 days of age

With `Cc1ccccc1CSc1ccc(-c2ccccn2)nn1` [Compound 7-4] as the compound, how does the “Localization of induced EAAT2 protein” value [1] read?
The value was “properly localized to the plasma membrane”.

What about the “EAAT2 protein levels in spinal cord (western blot)” value ([2]; 120-day-old mice) of the same compound?
The value was “restores”.

And the “Life span (survival)” value [2, 4]?
The value was “extended”.

What about the “Motor function decline (grip strength)” value [2, 4] of the same compound?
Its value is “delayed”.

What about the “Activity on all other kinases tested” value [3] of the same compound?
Its value is “insignificant activity”.
